From patent publication EP0450065A1, “ANTIVIRAL AGENT” (priority 1988, dated 1990)

What was measured:
Format in all cases: cell-based
[1] = test system: herpes simplex virus type 1 (KOS strain); assay: One-step growth of virus, plaque assay with vero cells; conditions: for Intracellular virus Average / Intracellular virus Control ratio % / Intracellular virus Control ratio -logT/C: 24 hours
[2] = test system: herpes simplex virus type 1 (KOS strain); assay: Control of CPE (cytopathic effect) manifestation in vero cells; conditions: HSV-1 (KOS), Example 7; for Cytopathic effect [CPE] (3days) △CPE / Cytopathic effect [CPE] (5days) △CPE: difference from control
[3] = test system: herpes simplex virus type 2 (169 strain); assay: as above; set-up: key to Cytopathic effect [CPE] (3days) Average / Cytopathic effect [CPE] (5days) Average / Cytopathic effect [CPE] (6days) Average: CPE score 0-3: 3 = ≥75% cells, 2 = 50%, 1 = 25%, 0 = none; key to Cytopathic effect [CPE] (3days) △CPE / Cytopathic effect [CPE] (5days) △CPE / Cytopathic effect [CPE] (6days) △CPE: difference of mean CPE score (0-3 scale) from untreated control; conditions: HSV-2 (169); for Cytopathic effect [CPE] (3days) △CPE / Cytopathic effect [CPE] (5days) △CPE / Cytopathic effect [CPE] (6days) △CPE: difference from control
Protocol: Vero cells cultured and grown in a monolayer on microplates to test for cytopathic effect due to viral infection, with solutions of Compound A diluted to varying ratios and solutions of virus diluted to varying ratios added severally thereto in a volume of 0.1 ml, were cultured under the conditions of 5% CO₂ and 37°C and were examined for CPE manifestation under a microscope. The observation was continued for five to six days.
The degree of CPE brought about by viral infection was rated on the five-point scale, wherein 3 stands for CPE observed on not less than 75% of cultured cells, 2 for CPE observed on 50% of cultured cells, 1 for CPE observed on 25% of cultured cells, 0.5 for occurrence of one to two extremely minute DPE spots, and 0 for perfect absence of recognizable CPE. The CPE scores obtained at the four holes in each microplate were averaged and the difference of the average from the average obtained in the control (omitting the treatment with a chemical) was reported as ΔCPE.
In vitro antiviral activity of Compound A against herpes simplex virus type 2 (169 strain) The test was carried out by following the procedure of Example 3.

[4] = test system: herpes simplex virus type 1 (KOS strain); assay: 50% Tissue culture infective dose (TCID50), Read-Munch method, negative logarithm of virus dilution; set-up: key to Cytopathic effect [CPE] (5days) TCID50 / Cytopathic effect [CPE] (3days) TCID50: TCID50 as negative log of maximum virus dilution ratio; key to Cytopathic effect [CPE] (5days) △TCID50 / Cytopathic effect [CPE] (3days) △TCID50: difference from control TCID50, in negative log of virus dilution; conditions: HSV-1 (KOS), Example 7
[5] = 100 μg/ml, difference from control

K₅BW₁₂O₄₀.15H₂O [Compound A]
Intracellular virus Average ([1]; 50 μg/ml, extracellular virus): 7.13×10^5 /dish | Intracellular virus Control ratio % ([1]; 50 μg/ml, extracellular virus): 97.6% | Intracellular virus Control ratio -logT/C ([1]; 50 μg/ml, extracellular virus): 1.623 | Intracellular virus Average ([1]; 50 μg/ml): 1.34×10^6 /dish | Intracellular virus Control ratio % ([1]; 50 μg/ml): 99.7% | Intracellular virus Control ratio -logT/C ([1]; 50 μg/ml): 2.482 | Intracellular virus Average ([1]; 100 μg/ml, extracellular virus): 8.38×10^4 /dish | Intracellular virus Control ratio % ([1]; 100 μg/ml, extracellular virus): 99.7% | Intracellular virus Control ratio -logT/C ([1]; 100 μg/ml, extracellular virus): 2.554 | Intracellular virus Average ([1]; 100 μg/ml): 1.99×10^6 /dish | Intracellular virus Control ratio -logT/C ([1]; 100 μg/ml): 7.211 | Intracellular virus Control ratio % ([1]; 100 μg/ml, 1440 min): >99.9% | Intracellular virus Control ratio -logT/C ([1]; 200 μg/ml, extracellular virus): 5.778 | Intracellular virus Control ratio % ([1]; 200 μg/ml, extracellular virus, 1440 min): >99.9% | Intracellular virus Control ratio -logT/C ([1]; 200 μg/ml): > 7.211 | Intracellular virus Control ratio % ([1]; 200 μg/ml, 1440 min): >99.9% | control of the intracellular and extracellular viruses in the one-step growth ([1]; concentration not given, 1440 min): not less than 99.9% | Cytopathic effect [CPE] (3days) Average ([2]; 100 μg/ml): 0 | Cytopathic effect [CPE] (5days) Average ([2]; 100 μg/ml): 0 | Cytopathic effect [CPE] (3days) △CPE ([2]; 100 μg/ml): 2.0 | Cytopathic effect [CPE] (5days) △CPE ([2]; 100 μg/ml): 3.0 | Cytopathic effect [CPE] (3days) Average ([2]; 200 μg/ml): 0 | Cytopathic effect [CPE] (5days) Average ([2]; 200 μg/ml): 0 | Cytopathic effect [CPE] (3days) △CPE ([2]; 200 μg/ml): 2.0 | Cytopathic effect [CPE] (5days) △CPE ([2]; 200 μg/ml): 3.0 | Cytopathic effect [CPE] (3days) Average ([3]; 5 μg/ml, Example 4): 1.0 | Cytopathic effect [CPE] (5days) Average ([3]; 5 μg/ml, Example 4): 2.5 | Cytopathic effect [CPE] (3days) △CPE ([3]; 5 μg/ml, Example 4): 0.5 | Cytopathic effect [CPE] (5days) △CPE ([3]; 5 μg/ml, Example 4): 0.5 | Cytopathic effect [CPE] (3days) Average ([3]; 10 μg/ml, Example 4): 1.0 | Cytopathic effect [CPE] (5days) Average ([3]; 10 μg/ml, Example 4): 2.0 | Cytopathic effect [CPE] (3days) △CPE ([3]; 10 μg/ml, Example 4): 0.5 | Cytopathic effect [CPE] (5days) △CPE ([3]; 10 μg/ml, Example 4): 1.0 | Cytopathic effect [CPE] (3days) Average ([3]; 20 μg/ml, Example 4): 1.0 | Cytopathic effect [CPE] (5days) Average ([3]; 20 μg/ml, Example 4): 1.25 | Cytopathic effect [CPE] (3days) △CPE ([3]; 20 μg/ml, Example 4): 0.5 | Cytopathic effect [CPE] (5days) △CPE ([3]; 20 μg/ml, Example 4): 1.75 | Cytopathic effect [CPE] (3days) Average ([3]; 50 μg/ml, Example 4): 0.5 | Cytopathic effect [CPE] (5days) Average ([3]; 50 μg/ml, Example 4): 0.5 | Cytopathic effect [CPE] (3days) △CPE ([3]; 50 μg/ml, Example 4): 1.0 | Cytopathic effect [CPE] (5days) △CPE ([3]; 50 μg/ml, Example 4): 2.5 | Cytopathic effect [CPE] (3days) Average ([3]; 100 μg/ml, Example 4): 0 | Cytopathic effect [CPE] (5days) Average ([3]; 100 μg/ml, Example 4): 0 | Cytopathic effect [CPE] (3days) △CPE ([3]; 100 μg/ml, Example 4): 1.5 | Cytopathic effect [CPE] (5days) △CPE ([3]; 100 μg/ml, Example 4): 3.05 | Cytopathic effect [CPE] (3days) Average ([3]; 100 μg/ml, Example 6): 0 | Cytopathic effect [CPE] (6days) Average ([3]; 100 μg/ml, Example 6): 0 | Cytopathic effect [CPE] (3days) △CPE ([3]; 100 μg/ml, Example 6): 2.5 | Cytopathic effect [CPE] (6days) △CPE ([3]; 100 μg/ml, Example 6): 3.0 | Cytopathic effect [CPE] (3days) Average ([3]; 200 μg/ml, Example 6): 0 | Cytopathic effect [CPE] (6days) Average ([3]; 200 μg/ml, Example 6): 0 | Cytopathic effect [CPE] (3days) △CPE ([3]; 200 μg/ml, Example 6): 2.5 | Cytopathic effect [CPE] (6days) △CPE ([3]; 200 μg/ml, Example 6): 3.0 | Cytopathic effect [CPE] (3days) TCID50 ([4]; 100 μg/ml): 3.5 | Cytopathic effect [CPE] (5days) TCID50 ([4]; 100 μg/ml): 3.5 | Cytopathic effect [CPE] (3days) △TCID50 [4, 5]: 2.0 | Cytopathic effect [CPE] (5days) △TCID50 [4, 5]: 2.5 | Cytopathic effect [CPE] (3days) TCID50 ([4]; 200 μg/ml): 3.5 | Cytopathic effect [CPE] (5days) TCID50 ([4]; 200 μg/ml): 3.5
